Experimental data published in PMC12239085, “Silver(I) Ions Bridging Oxadiazole-2-thione Derivatives with Mitochondriotropic Agents: A Promising Strategy for Potent Anticancer Chemotherapy” (Inorganic Chemistry, 2025).
Values joined by “and” are separate entries in the source; they are usually repeats but may differ in a detail not shown here. Identical values can stand only once. Like-named read-outs stand apart in the source and are kept apart here.

How the values were obtained:
[1] = system: normal human fetal lung fibroblast (MRC-5) cells; assay: SRB toxicity assay, MRC-5; assay type: cell-based; conditions: Homo sapiens, MRC5, 48 h incubation
Protocol: (§1) Stock solutions of compounds 1a–5a and 1–5 (0.01 M) in DMSO were freshly prepared and subsequently diluted with cell culture media to appropriate concentrations for various biological experiments. These included the assessment of cell viability using the SRB assay, micronucleus testing, cell morphology studies, cell cycle arrest, AO/EB staining, and mitochondrial membrane permeabilization tests. For CT-DNA binding studies, experiments were conducted in DMSO/buffer solutions. All biological experiments were performed in triplicate or more.
(§2) Stock solutions of 1a–5a and 1–5 (0.01 M) were dissolved in DMSO and subsequently diluted with cell culture medium to the desired concentrations (0.5–30 μM). MCF-7, MDA MB-231, and MRC-5 cells were plated in 96-well flat-bottom microplates at various densities: 6000, 8000, and 2000 cells per well, respectively. The cells were incubated for 24 h at 37 °C and then exposed to 1a–5a and 1–5 for 48 h. ,–
(§3) Cytotoxicity was evaluated using the SRB colorimetric assay at λ = 568 nm, with cell survival percentages calculated relative to the untreated control cells. Detailed information on the SRB assay procedure can be found in the previous publication. ,–

[2] = system: MDA-MB-231 human breast adenocarcinoma cells (hormone-independent); assay: SRB antiproliferative assay, MDA-MB-231; assay type: cell-based; conditions: Homo sapiens, MDA-MB-231, 48 h incubation
Protocol: as §1, §2, §3

[3] = system: MCF-7 human breast adenocarcinoma cells (hormone-dependent); assay: SRB antiproliferative assay, MCF-7; assay type: cell-based; conditions: for IC50: Homo sapiens, MCF7, SRB assay, 48 h incubation; for (%) cells viability: MCF-7 cells, ligands with IC50 higher than 30 μM
Protocol: as §1, §2, §3

[4] = system: normal human fetal lung fibroblast (MRC-5) cells; parameters: method as in column not 'this study', ref number not given; conditions: 48 h incubation; ref not 'this study', ref number not given; cited from earlier work
MRC-5 cells = system: MRC-5 cells; parameters: method as in number not given; conditions: cited from earlier work
MCF-7 cells [5] = system: MCF-7 cells; parameters: method as in number not given; conditions: cisplatin comparison; ref number not given; cited from earlier work
[6] = system: MDA-MB-231 human breast adenocarcinoma cells (hormone-independent); parameters: method as in column not 'this study', ref number not given; conditions: 48 h incubation; ref not 'this study', ref number not given; cited from earlier work
MCF-7 cells [7] = system: MCF-7 cells; parameters: method as in number not given; conditions: cisplatin comparison; ref number not given; cited from earlier work; remark: listed apart in the source
lipoxygenase (LOX) = molecular target: T1, lipoxygenase (LOX) (Glycine max, UniProt P08170); conditions: cisplatin comparison; ref number not given; read-out: IC50 against LOX; cited from earlier work
T1 sequence (P08170 1-839): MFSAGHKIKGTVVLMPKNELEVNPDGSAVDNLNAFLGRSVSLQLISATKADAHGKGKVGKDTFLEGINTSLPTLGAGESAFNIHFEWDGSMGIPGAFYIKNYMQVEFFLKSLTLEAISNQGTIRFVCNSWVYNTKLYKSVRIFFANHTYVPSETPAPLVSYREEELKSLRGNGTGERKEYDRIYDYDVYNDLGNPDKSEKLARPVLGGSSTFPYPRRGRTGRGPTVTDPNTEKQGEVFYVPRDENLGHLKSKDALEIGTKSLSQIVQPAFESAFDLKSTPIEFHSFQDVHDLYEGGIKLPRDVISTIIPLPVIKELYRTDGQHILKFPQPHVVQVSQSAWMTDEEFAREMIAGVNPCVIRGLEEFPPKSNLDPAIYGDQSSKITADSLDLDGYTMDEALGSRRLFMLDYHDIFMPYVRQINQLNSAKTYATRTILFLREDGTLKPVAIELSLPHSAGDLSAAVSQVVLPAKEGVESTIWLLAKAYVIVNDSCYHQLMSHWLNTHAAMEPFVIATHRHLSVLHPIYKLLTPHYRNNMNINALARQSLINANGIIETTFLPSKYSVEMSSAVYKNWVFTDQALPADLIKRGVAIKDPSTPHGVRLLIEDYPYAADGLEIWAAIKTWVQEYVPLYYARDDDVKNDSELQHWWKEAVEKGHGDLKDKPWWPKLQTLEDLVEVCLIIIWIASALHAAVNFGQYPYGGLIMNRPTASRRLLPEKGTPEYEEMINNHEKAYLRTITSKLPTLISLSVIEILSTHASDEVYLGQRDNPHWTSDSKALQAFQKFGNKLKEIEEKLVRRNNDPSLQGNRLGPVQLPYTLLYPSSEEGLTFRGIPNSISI

MCF-7 cells [8] = system: MCF-7 cells; parameters: method as in number not given; conditions: cisplatin comparison, ref number not given; cited from earlier work
[9] = system: MCF-7 human breast adenocarcinoma cells (hormone-dependent); conditions: 48 h incubation; ref not 'this study', ref number not given; cited from earlier work
[10] = system: nontumorigenic human breast epithelial cell line (MCF-10A); parameters: method as in column not 'this study', ref number not given; conditions: 48 h incubation; ref not 'this study', ref number not given; cited from earlier work

Compound | IC50 [2] | IC50 [3] | IC50 [1] | (%) cells viability [3] | also measured
Fc1ccccc1-c1nnc(S)o1 [2a] | > 30 µM | > 30 µM | > 30 µM | 95.7% | 
S=c1[nH]nc(-c2ccccc2)o1 [1a] | > 30 µM | > 30 µM | > 30 µM | 84.7% | 
N.N.[Cl][Pt][Cl] [cisplatin] |  |  |  |  | IC50 [4]: 1100 ± 200 nM; Percentage of MN (MRC-5 cells; control = 0.8, ref number not given): 1.6 (control = 0.8) %; Relative ratio of MN toward its control (MRC-5 cells; ref number not given): 2.0; Relative rate of MCF-7 cells in sub-G1 phase (MCF-7 cells [5]): 2.9; IC50 [6]: 26.7 ± 1.1 µM; relative rate of apoptotic MCF-7 cells (MCF-7 cells [7]): 5.88 and 5.9; IC50 (lipoxygenase (LOX)): 65.9 µM; fluorescence quenching (MMP) (MCF-7 cells [8]): 54.9%; IC50 [9]: 5.5 ± 0.4 µM; IC50 [10]: 11 ± 3 µM
c1ccc(P(c2ccccc2)c2ccccc2)cc1 [TPP, triphenylphosphine] |  |  |  |  | IC50 [4]: > 30000 nM; IC50 [6]: > 30 µM; IC50 [9]: 28.9 ± 1.4 µM

More lines, main results first:

IC50 [2] | IC50 [3] | Compound | IC50 [1] | (%) cells viability [3] | also measured
> 30 µM | > 30 µM | Sc1nnc(-c2ccccc2Cl)o1 [4a] | > 30 µM | 80.3% | 
> 30 µM | > 30 µM | Fc1ccc(-c2nnc(S)o2)cc1 [3a] | > 30 µM | 90.7% | 
> 30 µM | > 30 µM | Sc1nnc(-c2cccc(Cl)c2)o1 [5a] | > 30 µM | 90.1% | 
